From patent US20210060013A1, “Method for Preventing Triple Negative Breast Cancer in Predisposed Subjects” (Southern University of Science and Technology, priority 2019, published 2021)

Key:
[1] = target: PDGFRβ (Homo sapiens, UniProt P09619); settings: cited from earlier work
[2] = in vivo; cited from earlier work
[3] = target: PDGFRα (Homo sapiens, UniProt P16234); settings: cited from earlier work
[4] = system: inflammatory breast cancer cells; settings: in vitro; cited from earlier work
[5] = system: other known RTKs (e.g., VEGFR or fibroblast growth factor receptor) or serine/threonine kinases (e.g. Abl, Raf); settings: at concentrations that are used clinically; cited from earlier work
[6] = system: PDGFRβ; assay: Induced PDGFRβ pathway signaling in human mammary fibroblasts (Western blot); type: cell-based
Experimental: SDS/PAGE and Western Blot Analysis. The labeling performance of probe 1 to various bait proteins was characterized by high-resolution SDS/PAGE using the PROTEAN II xi Cell electrophoresis instrument (gel size, 16×20 cm; Bio-Rad) and Coomassie brilliant blue staining. Equal amounts of protein were separated by SDS/PAGE and transferred to membranes. Membranes were blocked in 5% (wt/vol) BSA and then incubated with a primary antibody overnight at 4° C., followed by an incubation with an HRP-conjugated anti-rabbit or anti-mouse secondary antibody (Cell Signaling Technology). Proteins were visualized using a Western ECL Substrate Kit (Bio-Rad). The primary antibodies used in this study were streptavidin-HRP (Thermo Fisher), anti-4G10 (Merck Millipore), anti-His (Cell Signaling Technology), anti-EGFR (Cell Signaling Technology), anti-ERBB2 (Cell Signaling Technology), anti-PDGFRB (Cell Signaling Technology), anti-p-STAT3 (Cell Signaling Technology), anti-p-AKT (Cell Signaling Technology), anti-AKT (Cell Signaling Technology), anti-p-ERK 1/2 (Cell Signaling Technology), anti-ERK 1/2 (Cell Signaling Technology), and anti-β-actin (Beyotime).
In addition, the ability of the present invention to block PDGFR signaling in a conditioned media in vitro system was investigated. […]

[7] = system: MMTV-PyMT mice; assay: MMTV-PyMT mouse model of breast cancer, preventive crenolanib treatment; type: in vivo; settings: for tumor growth (tumor volumes by calipers) vs vehicle-treated mice: measured every 5 d, beginning at day 10, FIGS. 1A, 1B
Experimental: FIGS. 1A to 1C show the ability of the present invention to prevent the development of mammary tumors in a subject genetically predisposed and at high risk of developing breast cancer. MMTV-PyMT mice were administered crenolanib starting at 8 weeks of age, before the development of palpable mammary tumors. FIG. 1A: Mice were treated with 20 mg/kg crenolanib, dissolved in vehicle, intraperitoneally once daily for 35 days. FIG. 1B: Tumor sizes were measured using digital calipers every 5 days during treatment and volumes were calculated using a standard formula ((length×width)/2)). Control mice were treated with vehicle alone. FIG. 1C: At the end of crenolanib treatment, mice were sacrificed, and final tumor weight was determined.
In the MMTV-PyMT mouse model of breast cancer, the Polyoma Virus middle T antigen is expressed under the control of the mouse mammary tumor virus promoter, which results in spontaneous formation of mammary tumors in female mice. This model effectively recapitulates all of the stages of human disease, and mice develop tumors begin developing palpable mammary tumors at approximately 13 weeks of age (Guy, Cardiff, & Muller, 1992). Therefore, the MMTV-PyMT model is a highly reproducible and highly faithful model for the development of TNBC.
Animal Studies. All animal procedures were approved by the Institutional Animal Care and Use Committee at Southern University of Science and Technology. Twelve 8-wk-old female MMTV-PyMT mice were divided into six groups. The two mice in each group were littermates. Each group of mice was treated with crenolanib (20 mg/kg, dissolved in vehicle; Selleck) or vehicle [5% (vol/vol) glycerol formal; Sigma] intraperitoneally once daily for 35 d. Once palpable, tumor sizes were measured with a digital caliper every 5 d, and the volumes were calculated using the formula (length×width)/2. Data were reported as means±SE. At the end of crenolanib treatment, mice were killed, and tumors were harvested and weighted.
In vivo analysis also validated that PDGFRB was prominently expressed in tumor associated stromal cells, including spindle-shaped fibroblasts, but not in tumor tissues by using the polyoma middle T (PyMT) oncogene-driven breast cancer mouse model, which mimics all identifiable stages of human breast cancer progression (28) (data not shown). […] To further analyze the paracrine effects of breast cancer cells on fibroblast expansion, the inventors assessed the ligand secretion by breast cancer cells (data not shown). […] Tumor volumes in crenolanib-treated and untreated mice were measured every 5 d after dosing initiation. […] In addition, tumor weight per mouse at sacrifice (12 wk) was 55% lower in crenolanib-treated mice than in vehicle-treated mice (FIG. 1C).

[8] = treatment starting at 8 weeks of age, before palpable mammary tumors

Chain of PDGFRβ (Homo sapiens, UniProt P09619) (P09619 33-1106): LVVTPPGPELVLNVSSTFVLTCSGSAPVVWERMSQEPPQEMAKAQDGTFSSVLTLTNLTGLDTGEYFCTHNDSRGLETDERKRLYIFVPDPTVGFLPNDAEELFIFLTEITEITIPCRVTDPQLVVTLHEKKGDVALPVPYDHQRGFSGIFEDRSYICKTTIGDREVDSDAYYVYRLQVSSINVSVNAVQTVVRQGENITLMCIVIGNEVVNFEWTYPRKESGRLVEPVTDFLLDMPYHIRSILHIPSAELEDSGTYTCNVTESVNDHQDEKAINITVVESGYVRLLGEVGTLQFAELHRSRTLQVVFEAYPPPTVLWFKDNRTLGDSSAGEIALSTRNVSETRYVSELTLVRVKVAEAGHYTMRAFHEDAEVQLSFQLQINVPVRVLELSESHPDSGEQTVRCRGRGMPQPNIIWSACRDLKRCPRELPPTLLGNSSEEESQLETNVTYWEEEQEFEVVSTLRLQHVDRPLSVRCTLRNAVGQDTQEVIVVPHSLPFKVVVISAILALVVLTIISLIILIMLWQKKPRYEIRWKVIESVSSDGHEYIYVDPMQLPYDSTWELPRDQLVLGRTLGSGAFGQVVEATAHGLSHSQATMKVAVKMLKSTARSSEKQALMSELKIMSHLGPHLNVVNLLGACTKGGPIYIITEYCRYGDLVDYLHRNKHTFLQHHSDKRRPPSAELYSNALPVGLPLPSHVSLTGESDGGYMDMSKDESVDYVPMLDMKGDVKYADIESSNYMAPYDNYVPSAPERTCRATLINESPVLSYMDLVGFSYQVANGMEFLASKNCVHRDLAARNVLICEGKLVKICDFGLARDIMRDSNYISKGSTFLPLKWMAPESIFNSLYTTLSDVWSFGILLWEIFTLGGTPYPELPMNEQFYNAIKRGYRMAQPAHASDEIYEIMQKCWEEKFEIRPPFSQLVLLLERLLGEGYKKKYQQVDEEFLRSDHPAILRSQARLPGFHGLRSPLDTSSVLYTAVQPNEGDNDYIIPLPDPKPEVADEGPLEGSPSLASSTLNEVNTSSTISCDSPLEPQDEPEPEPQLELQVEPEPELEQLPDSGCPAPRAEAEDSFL
Chain of PDGFRα (P16234 24-1089): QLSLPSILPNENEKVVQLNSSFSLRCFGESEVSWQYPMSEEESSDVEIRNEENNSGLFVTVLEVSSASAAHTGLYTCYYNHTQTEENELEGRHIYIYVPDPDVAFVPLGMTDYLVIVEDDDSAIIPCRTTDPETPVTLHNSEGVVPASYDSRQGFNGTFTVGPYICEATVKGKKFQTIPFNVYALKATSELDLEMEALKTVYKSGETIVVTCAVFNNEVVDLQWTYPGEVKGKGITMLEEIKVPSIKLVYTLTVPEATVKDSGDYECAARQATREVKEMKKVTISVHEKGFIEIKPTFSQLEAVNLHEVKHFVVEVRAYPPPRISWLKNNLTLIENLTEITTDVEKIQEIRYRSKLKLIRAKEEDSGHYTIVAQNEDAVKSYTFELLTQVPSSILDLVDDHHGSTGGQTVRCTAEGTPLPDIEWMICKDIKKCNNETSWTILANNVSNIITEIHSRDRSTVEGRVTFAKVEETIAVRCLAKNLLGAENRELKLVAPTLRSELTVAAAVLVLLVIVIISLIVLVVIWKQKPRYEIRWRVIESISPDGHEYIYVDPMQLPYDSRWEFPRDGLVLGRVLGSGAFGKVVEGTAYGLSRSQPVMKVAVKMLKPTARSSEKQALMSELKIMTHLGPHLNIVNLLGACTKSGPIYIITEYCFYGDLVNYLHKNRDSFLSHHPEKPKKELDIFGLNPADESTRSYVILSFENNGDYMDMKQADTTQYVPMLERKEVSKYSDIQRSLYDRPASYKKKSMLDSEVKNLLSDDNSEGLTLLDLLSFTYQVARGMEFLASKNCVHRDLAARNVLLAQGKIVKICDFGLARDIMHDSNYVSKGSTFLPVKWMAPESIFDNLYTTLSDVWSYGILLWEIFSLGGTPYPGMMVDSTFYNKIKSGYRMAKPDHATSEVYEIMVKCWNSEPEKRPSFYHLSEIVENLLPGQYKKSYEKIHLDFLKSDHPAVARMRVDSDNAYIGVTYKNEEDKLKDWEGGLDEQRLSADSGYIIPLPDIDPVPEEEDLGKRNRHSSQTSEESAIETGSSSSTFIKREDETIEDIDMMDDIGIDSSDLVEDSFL

Compound | inhibition of PDGFRβ [1] | oral bioavailability [2] | inhibition of PDGFRα [3] | growth of inflammatory breast cancer cells [4] | inhibition of other known RTKs or serine/threonine kinases [5] | downstream pathway signaling (phosphorylated AK and ERK 1/2) ([6]; human mammary fibroblasts pre-treated, conditioned media from MDA-MB-468 cells, FIG. 2) | increase in PDGFRβ signaling induced by conditioned media ([6]; human mammary fibroblasts pretreated with crenolanib, conditioned media from TNBC cell line MDA-MB468, FIG. 2 left half) | tumor weight per mouse at sacrifice, lower than in vehicle-treated mice ([7]; 20 mg/kg intraperitoneally once daily for 35 d from 8 wk of age, at sacrifice (12 wk), FIG. 1C) | tumor growth (tumor volumes by calipers) vs vehicle-treated mice ([7]; 20 mg/kg intraperitoneally once daily for 35 d from 8 wk of age) | tumor growth (tumor volumes by calipers) vs vehicle-treated mice ([7]; 20 mg/kg intraperitoneally once daily for 35 d from 8 wk of age, listed as the present invention) | number of tumors [7, 8] | tumor volume [7, 8] | tumor weight [7, 8]
crenolanib besylate | ability to inhibit | orally bioavailable | ability to inhibit | – | – | – | – | – | – | – | – | – | –
CC1(COc2ccc3c(c2)ncn3-c2ccc3cccc(N4CCC(N)CC4)c3n2)COC1 [crenolanib, 4-Piperidinamine, 1-[2-[5-[(3-methyl-3-oxetanyl)methoxy]-1H-benzimidazol-1-yl]-8-quinolinyl]] | highly selective inhibitor | – | – | inhibits the growth | does not inhibit | inhibited | blocked this increased signaling | 55% | grew significantly more slowly | significantly prevented tumor growth | reduced | reduced | reduced
